Reference: PubChem BioAssay (NCI)
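Compound exposure: 48 hours, 5 concentrations, 96-well plates. Abbreviation: GI50, concentration required for 50% inhibition of growth. TGI denotes the concentration required for complete inhibition of growth.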

Legend:
Test in all cases: inhibition of tumour cell growth, NCI panel, 48 h
[1] = test system: NCI-H460 lung
[2] = test system: UACC-62 melanoma
[3] = test system: IGROV1 ovarian
[4] = test system: RPMI-8226 leukemia
[5] = test system: UACC-257 melanoma
[6] = test system: CCRF-CEM leukemia
[7] = test system: SN12C renal
[8] = test system: SNB-75 CNS
[9] = test system: MDA-MB-231 breast
[10] = test system: UO-31 renal
[11] = test system: MCF7 breast
[12] = test system: HOP-92 NSCLC
[13] = test system: SK-MEL-2 melanoma
[14] = test system: PC-3 prostate
[15] = test system: ACHN renal
[16] = test system: NCI-H226 lung
[17] = test system: T-47D breast
[18] = test system: HT29 colon
[19] = test system: NCI-H522 lung
[20] = test system: SK-MEL-28 melanoma
[21] = test system: MDA-MB-435
[22] = test system: SK-OV-3 ovarian
[23] = test system: HCT-116 colon
[24] = test system: U251 CNS
[25] = test system: HCT-15 colon
[26] = test system: 786-0 renal
[27] = test system: OVCAR-5 ovarian
[28] = test system: SK-MEL-5 melanoma
[29] = test system: K-562 leukemia
[30] = test system: MOLT-4 leukemia
[31] = test system: HOP-62 NSCLC
[32] = test system: DU-145 prostate
[33] = test system: RXF 393 renal
[34] = test system: M14 melanoma
[35] = test system: TK-10 renal
[36] = test system: SF-268 CNS
[37] = test system: BT-549 breast
[38] = test system: MALME-3M melanoma
[39] = test system: OVCAR-3 ovarian
[40] = test system: NCI-H23 lung
[41] = test system: HL-60(TB) leukemia
[42] = test system: NCI/ADR-RES ovarian
[43] = test system: SF-295 CNS
[44] = test system: SF-539 CNS
[45] = test system: COLO 205 colon
[46] = test system: A498 renal
[47] = test system: OVCAR-8 ovarian
[48] = test system: SW-620 colon
[49] = test system: HS 578T breast
[50] = test system: EKVX NSCLC
[51] = test system: KM12 colon
[52] = test system: A549 NSCLC
[53] = test system: OVCAR-4 ovarian
[54] = test system: LOX IMVI melanoma
[55] = test system: HCC-2998 colon
[56] = test system: CAKI-1 renal
[57] = test system: SNB-19 CNS

C=C1C(=O)O[C@H]2[C@H]1CC/C(COC(=O)/C=C/c1c[nH]c3ccccc13)=C\CC[C@@]1(C)O[C@@H]21
GI50 [1]: 1010 nM
TGI [1]: 2660 nM
GI50 [2]: 177 nM
TGI [2]: 379 nM
GI50 [3]: 225 nM
TGI [3]: 484 nM
GI50 [4]: 33.2 nM
TGI [4]: 123 nM
GI50 [5]: 354 nM
TGI [5]: 1460 nM
GI50 [6]: 73.3 nM
TGI [6]: 854 nM
GI50 [7]: 197 nM
TGI [7]: 478 nM
GI50 [8]: 170 nM
TGI [8]: 428 nM
GI50 [9]: 177 nM
TGI [9]: 374 nM
GI50 [10]: 157 nM
TGI [10]: 294 nM
GI50 [11]: 226 nM
TGI [11]: 1010 nM
GI50 [12]: 156 nM
TGI [12]: 369 nM
GI50 [13]: 208 nM
TGI [13]: 412 nM
GI50 [14]: 329 nM
TGI [14]: 1520 nM
GI50 [15]: 202 nM
TGI [15]: 545 nM
GI50 [16]: 230 nM
TGI [16]: 702 nM
GI50 [17]: 205 nM
TGI [17]: 626 nM
GI50 [18]: 195 nM
TGI [18]: 416 nM
GI50 [19]: 186 nM
TGI [19]: 371 nM
GI50 [20]: 332 nM
TGI [20]: 1300 nM
GI50 [21]: 222 nM
TGI [21]: 582 nM
GI50 [22]: 1880 nM
TGI [22]: 3590 nM
GI50 [23]: 185 nM
TGI [23]: 425 nM
GI50 [24]: 212 nM
TGI [24]: 528 nM
GI50 [25]: 181 nM
TGI [25]: 425 nM
GI50 [26]: 221 nM
TGI [26]: 555 nM
GI50 [27]: 315 nM
TGI [27]: 1380 nM
GI50 [28]: 208 nM
TGI [28]: 516 nM
GI50 [29]: 273 nM
TGI [29]: > 100000 nM
GI50 [30]: 302 nM
TGI [30]: 1780 nM
GI50 [31]: 829 nM
TGI [31]: 2160 nM
GI50 [32]: 393 nM
TGI [32]: 1430 nM
GI50 [33]: 172 nM
TGI [33]: 331 nM
GI50 [34]: 221 nM
TGI [34]: 572 nM
GI50 [35]: 279 nM
TGI [35]: 709 nM
GI50 [36]: 229 nM
TGI [36]: 569 nM
GI50 [37]: 175 nM
TGI [37]: 384 nM
GI50 [38]: 283 nM
TGI [38]: 828 nM
GI50 [39]: 173 nM
TGI [39]: 370 nM
GI50 [40]: 1250 nM
TGI [40]: 4320 nM
GI50 [41]: 256 nM
TGI [41]: 717 nM
GI50 [42]: 357 nM
TGI [42]: 12200 nM
GI50 [43]: 1620 nM
TGI [43]: 3140 nM
GI50 [44]: 261 nM
TGI [44]: 941 nM
GI50 [45]: 225 nM
TGI [45]: 541 nM
GI50 [46]: 278 nM
TGI [46]: 1130 nM
GI50 [47]: 191 nM
TGI [47]: 421 nM
GI50 [48]: 181 nM
TGI [48]: 446 nM
GI50 [49]: 353 nM
TGI [49]: 2920 nM
GI50 [50]: 238 nM
TGI [50]: 769 nM
GI50 [51]: 402 nM
TGI [51]: 1640 nM
GI50 [52]: 1270 nM
TGI [52]: 2710 nM
GI50 [53]: 207 nM
TGI [53]: 546 nM

O=C(O)c1cc2c(c3ccsc13)-c1ccccc1CC2
GI50 [1]: 33200 nM
TGI [1]: > 100000 nM
GI50 [2]: 33900 nM
TGI [2]: > 100000 nM
GI50 [3]: 33900 nM
TGI [3]: > 100000 nM
GI50 [4]: 43400 nM
TGI [4]: > 100000 nM
GI50 [5]: 53400 nM
TGI [5]: > 100000 nM
GI50 [6]: 37600 nM
TGI [6]: > 100000 nM
GI50 [7]: 32100 nM
TGI [7]: > 100000 nM
GI50 [8]: 86200 nM
TGI [8]: > 100000 nM
GI50 [9]: 27600 nM
TGI [9]: > 100000 nM
GI50 [10]: 29300 nM
TGI [10]: 79500 nM
GI50 [11]: 42000 nM
TGI [11]: > 100000 nM
GI50 [12]: 30300 nM
TGI [12]: > 100000 nM
GI50 [13]: 26500 nM
TGI [13]: 87500 nM
GI50 [14]: 40900 nM
TGI [14]: > 100000 nM
GI50 [15]: 36600 nM
TGI [15]: > 100000 nM
GI50 [16]: 34800 nM
TGI [16]: > 100000 nM
GI50 [17]: 44700 nM
TGI [17]: > 100000 nM
GI50 [18]: 39400 nM
TGI [18]: > 100000 nM
GI50 [19]: 29000 nM
TGI [19]: 82100 nM
GI50 [54]: 40800 nM
TGI [54]: > 100000 nM
GI50 [20]: 85500 nM
TGI [20]: > 100000 nM
GI50 [21]: 42700 nM
TGI [21]: > 100000 nM
GI50 [55]: 24200 nM
TGI [55]: 69600 nM
GI50 [22]: 85100 nM
TGI [22]: > 100000 nM
GI50 [23]: 34900 nM
TGI [23]: > 100000 nM
GI50 [24]: 36800 nM
TGI [24]: > 100000 nM
GI50 [25]: 39000 nM
TGI [25]: > 100000 nM
GI50 [26]: 49700 nM
TGI [26]: > 100000 nM
GI50 [27]: 60200 nM
TGI [27]: > 100000 nM
GI50 [28]: 31300 nM
TGI [28]: > 100000 nM
GI50 [29]: 40600 nM
TGI [29]: > 100000 nM
GI50 [31]: 31800 nM
TGI [31]: > 100000 nM
GI50 [32]: 44200 nM
TGI [32]: > 100000 nM
GI50 [33]: 36600 nM
TGI [33]: > 100000 nM
GI50 [34]: 42200 nM
TGI [34]: > 100000 nM
GI50 [35]: 30300 nM
TGI [35]: 98900 nM
GI50 [36]: 44000 nM
TGI [36]: > 100000 nM
GI50 [37]: 41100 nM
TGI [37]: > 100000 nM
GI50 [56]: 52000 nM
TGI [56]: > 100000 nM
GI50 [38]: 18800 nM
TGI [38]: 59600 nM
GI50 [57]: 47000 nM
TGI [57]: > 100000 nM
GI50 [39]: 28800 nM
TGI [39]: > 100000 nM
GI50 [40]: 30100 nM
TGI [40]: 79500 nM
GI50 [41]: 37500 nM
TGI [41]: > 100000 nM
GI50 [42]: 33700 nM
TGI [42]: > 100000 nM
GI50 [43]: 29500 nM
TGI [43]: > 100000 nM
GI50 [44]: 36500 nM
TGI [44]: > 100000 nM
GI50 [45]: 40500 nM
TGI [45]: > 100000 nM
GI50 [46]: 19200 nM
TGI [46]: 61800 nM
GI50 [47]: 40700 nM
TGI [47]: > 100000 nM
GI50 [48]: 40200 nM
TGI [48]: > 100000 nM
GI50 [49]: 30500 nM
TGI [49]: 88900 nM
GI50 [50]: 50400 nM
TGI [50]: > 100000 nM
GI50 [51]: 34300 nM
TGI [51]: > 100000 nM
GI50 [52]: 36100 nM
TGI [52]: > 100000 nM
GI50 [53]: 23300 nM
TGI [53]: > 100000 nM
